The text below walks through data of ChEMBL document CHEMBL5528042, “Identification of Novel, Selective Ataxia-Telangiectasia Mutated Kinase Inhibitors with the Ability to Penetrate the Blood-Brain Barrier: The Discovery of AZD1390” (J Med Chem, 2024).

Converted amounts (≈) assume the structure as drawn.

Tested on in the first data set: not listed separately
Description: Aqueous solubility of the compound in pH 7.4. Format: physicochemical. The conditions noted are these: buffer.
With `COCc1ccc(-c2ccc3ncc4c(c3c2)n(C2CCOCC2)c(=O)n4C)cn1`, the concentration in solution (solubility) came to 19 µM (≈ 7.68 µg/mL).
The same measure, in the same setting: as for `COCc1ccc(-c2ccc3ncc4c(c3c2)n([C@H]2CCCOC2)c(=O)n4C)cn1`, the figure is 125 µM (≈ 50.6 µg/mL); as for `CC(C)n1c(=O)n(C)c2cnc3ccc(-c4ccc(OCCCN(C)C)cc4)cc3c21`, 323 µM (≈ 135 µg/mL).
Same read-out and setting: as for `CC(C)n1c(=O)n(C)c2cnc3ccc(-c4ccc(O[C@H]5CCN(C)C5)nc4)cc3c21`, the figure is more than 1000 µM.
On the same count and under the same terms, as for `COCc1ccc(-c2ccc3ncc4c(c3c2)n(C(C)C)c(=O)n4C)cn1`, the figure is 42 µM (≈ 15.2 µg/mL); as for `CC(C)n1c(=O)n(C)c2cnc3ccc(-c4ccc(OCCCCN(C)C)nc4)cc3c21`, 39 µM (≈ 16.9 µg/mL).
`CC(C)n1c(=O)n(C)c2cnc3ccc(-c4ccc(OCCCN5CCCCC5)nc4)cc3c21`: the concentration in solution (solubility) was 826 µM (≈ 380 µg/mL).
The same measure, in the same setting: as for `CC(C)n1c(=O)n(C)c2cnc3ccc(-c4ccc(OC[C@@H]5CCN(C)C5)nc4)cc3c21`, the figure is more than 1000 µM.
Still for that read-out and setting: as for `CC(C)n1c(=O)n(C)c2cnc3ccc(-c4ccc(N5CC(N(C)C)C5)nc4)cc3c21`, the figure is 10 µM (≈ 4.17 µg/mL).

Tested on in another data set: not listed separately
Briefly: Lipophilicity, logD of the compound at pH 7.4. It is filed as physicochemical. To be noted: buffer.
For the compound `COCc1ccc(-c2ccc3ncc4c(c3c2)n(C2CCOCC2)c(=O)n4C)cn1`, the logD is 2.3.
The same measure, in the same setting: the figure for `COCc1ccc(-c2ccc3ncc4c(c3c2)n([C@H]2CCCOC2)c(=O)n4C)cn1` is 2.5.
The same measure, in the same setting: the figure for `CC(C)n1c(=O)n(C)c2cnc3ccc(-c4ccc(OCCCN(C)C)cc4)cc3c21` is 2.7.
Same read-out and setting: as for `CC(C)n1c(=O)n(C)c2cnc3ccc(-c4ccc(O[C@H]5CCN(C)C5)nc4)cc3c21`, the figure is 2.4.
Consider `COCc1ccc(-c2ccc3ncc4c(c3c2)n(C(C)C)c(=O)n4C)cn1`, for which the logD amounted to 2.7.
Still for that read-out and setting: as for `CC(C)n1c(=O)n(C)c2cnc3ccc(-c4ccc(OCCCCN(C)C)nc4)cc3c21`, the figure is 1.9; as for `CC(C)n1c(=O)n(C)c2cnc3ccc(-c4ccc(OCCCN5CCCCC5)nc4)cc3c21`, 2.6.
On the same count and under the same terms, the figure for `CC(C)n1c(=O)n(C)c2cnc3ccc(-c4ccc(OC[C@@H]5CCN(C)C5)nc4)cc3c21` is 1.7; for `CC(C)n1c(=O)n(C)c2cnc3ccc(-c4ccc(N5CC(N(C)C)C5)nc4)cc3c21` it is 3.

Tested on in a further data set: not listed separately
Description: Dissociation constant, pKa of compound. Format: physicochemical.
Conditions: not given
Take `CC(C)n1c(=O)n(C)c2cnc3ccc(-c4ccc(N5CC(N(C)C)C5)nc4)cc3c21`: the pKa stood at 7.1.

Tested on in another data set: not listed separately
Briefly: Apparent permeability across apical to basolateral side in dog MDCKII-MDR1 cells overexpressing BCRP at 1 uM incubated for 90 mins by LC-MS/MS analysis. Format: ADME, cell-based, Canis lupus familiaris, MDCK-MDR1.
Conditions: not given
For the compound `COCc1ccc(-c2ccc3ncc4c(c3c2)n([C@H]2CCCOC2)c(=O)n4C)cn1`, the Papp A→B at […], 1 µM is 27 ×10⁻⁶ cm/s.
Same read-out and setting: the figure for `CC(C)n1c(=O)n(C)c2cnc3ccc(-c4ccc(OCCCN(C)C)cc4)cc3c21` is 24 ×10⁻⁶ cm/s; for `CC(C)n1c(=O)n(C)c2cnc3ccc(-c4ccc(O[C@H]5CCN(C)C5)nc4)cc3c21` it is 27 ×10⁻⁶ cm/s; for `CC(C)n1c(=O)n(C)c2cnc3ccc(-c4ccc(OCCCN5CCCCC5)nc4)cc3c21` it is 25 ×10⁻⁶ cm/s.
On the same count and under the same terms, the figure for `CC(C)n1c(=O)n(C)c2cnc3ccc(-c4ccc(OC[C@@H]5CCN(C)C5)nc4)cc3c21` is 23 ×10⁻⁶ cm/s.
For the compound `CC(C)n1c(=O)n(C)c2cnc3ccc(-c4ccc(N5CC(N(C)C)C5)nc4)cc3c21`, the apical-to-basolateral permeability (Papp A→B) at […], 1 µM was found to be 32 ×10⁻⁶ cm/s.

Tested on in another data set: not listed separately
Briefly: Intrinsic clearance in rat hepatocyte assessed per 10^6 cells. Format: ADME, cell-based. The conditions noted are these: hepatocytes, read-out: CLH.
Turning to `COCc1ccc(-c2ccc3ncc4c(c3c2)n([C@H]2CCCOC2)c(=O)n4C)cn1`, the hepatocyte CLint turned out to be 28 µL/min/1e6 cells.
Still for that read-out and setting: as for `CC(C)n1c(=O)n(C)c2cnc3ccc(-c4ccc(OCCCN(C)C)cc4)cc3c21`, the figure is 46 µL/min/1e6 cells; as for `CC(C)n1c(=O)n(C)c2cnc3ccc(-c4ccc(O[C@H]5CCN(C)C5)nc4)cc3c21`, 15 µL/min/1e6 cells; as for `COCc1ccc(-c2ccc3ncc4c(c3c2)n(C(C)C)c(=O)n4C)cn1`, 9 µL/min/1e6 cells.
On the same count and under the same terms, as for `CC(C)n1c(=O)n(C)c2cnc3ccc(-c4ccc(OCCCCN(C)C)nc4)cc3c21`, the figure is 19 µL/min/1e6 cells; as for `CC(C)n1c(=O)n(C)c2cnc3ccc(-c4ccc(OCCCN5CCCCC5)nc4)cc3c21`, 5.8 µL/min/1e6 cells.
Same read-out and setting: the figure for `CC(C)n1c(=O)n(C)c2cnc3ccc(-c4ccc(OC[C@@H]5CCN(C)C5)nc4)cc3c21` is 15 µL/min/1e6 cells; for `CC(C)n1c(=O)n(C)c2cnc3ccc(-c4ccc(N5CC(N(C)C)C5)nc4)cc3c21` it is 44 µL/min/1e6 cells.

In a further data set the target is Serine/threonine-protein kinase ATR (Homo sapiens, UniProt Q13535). Description: Inhibition of ATR in human HT-29 cells incubated for 2 hrs by Alexa Fluor 488/Hoeschst staining based plate reader assay.
Chain of Serine/threonine-protein kinase ATR (Q13535 whole entry): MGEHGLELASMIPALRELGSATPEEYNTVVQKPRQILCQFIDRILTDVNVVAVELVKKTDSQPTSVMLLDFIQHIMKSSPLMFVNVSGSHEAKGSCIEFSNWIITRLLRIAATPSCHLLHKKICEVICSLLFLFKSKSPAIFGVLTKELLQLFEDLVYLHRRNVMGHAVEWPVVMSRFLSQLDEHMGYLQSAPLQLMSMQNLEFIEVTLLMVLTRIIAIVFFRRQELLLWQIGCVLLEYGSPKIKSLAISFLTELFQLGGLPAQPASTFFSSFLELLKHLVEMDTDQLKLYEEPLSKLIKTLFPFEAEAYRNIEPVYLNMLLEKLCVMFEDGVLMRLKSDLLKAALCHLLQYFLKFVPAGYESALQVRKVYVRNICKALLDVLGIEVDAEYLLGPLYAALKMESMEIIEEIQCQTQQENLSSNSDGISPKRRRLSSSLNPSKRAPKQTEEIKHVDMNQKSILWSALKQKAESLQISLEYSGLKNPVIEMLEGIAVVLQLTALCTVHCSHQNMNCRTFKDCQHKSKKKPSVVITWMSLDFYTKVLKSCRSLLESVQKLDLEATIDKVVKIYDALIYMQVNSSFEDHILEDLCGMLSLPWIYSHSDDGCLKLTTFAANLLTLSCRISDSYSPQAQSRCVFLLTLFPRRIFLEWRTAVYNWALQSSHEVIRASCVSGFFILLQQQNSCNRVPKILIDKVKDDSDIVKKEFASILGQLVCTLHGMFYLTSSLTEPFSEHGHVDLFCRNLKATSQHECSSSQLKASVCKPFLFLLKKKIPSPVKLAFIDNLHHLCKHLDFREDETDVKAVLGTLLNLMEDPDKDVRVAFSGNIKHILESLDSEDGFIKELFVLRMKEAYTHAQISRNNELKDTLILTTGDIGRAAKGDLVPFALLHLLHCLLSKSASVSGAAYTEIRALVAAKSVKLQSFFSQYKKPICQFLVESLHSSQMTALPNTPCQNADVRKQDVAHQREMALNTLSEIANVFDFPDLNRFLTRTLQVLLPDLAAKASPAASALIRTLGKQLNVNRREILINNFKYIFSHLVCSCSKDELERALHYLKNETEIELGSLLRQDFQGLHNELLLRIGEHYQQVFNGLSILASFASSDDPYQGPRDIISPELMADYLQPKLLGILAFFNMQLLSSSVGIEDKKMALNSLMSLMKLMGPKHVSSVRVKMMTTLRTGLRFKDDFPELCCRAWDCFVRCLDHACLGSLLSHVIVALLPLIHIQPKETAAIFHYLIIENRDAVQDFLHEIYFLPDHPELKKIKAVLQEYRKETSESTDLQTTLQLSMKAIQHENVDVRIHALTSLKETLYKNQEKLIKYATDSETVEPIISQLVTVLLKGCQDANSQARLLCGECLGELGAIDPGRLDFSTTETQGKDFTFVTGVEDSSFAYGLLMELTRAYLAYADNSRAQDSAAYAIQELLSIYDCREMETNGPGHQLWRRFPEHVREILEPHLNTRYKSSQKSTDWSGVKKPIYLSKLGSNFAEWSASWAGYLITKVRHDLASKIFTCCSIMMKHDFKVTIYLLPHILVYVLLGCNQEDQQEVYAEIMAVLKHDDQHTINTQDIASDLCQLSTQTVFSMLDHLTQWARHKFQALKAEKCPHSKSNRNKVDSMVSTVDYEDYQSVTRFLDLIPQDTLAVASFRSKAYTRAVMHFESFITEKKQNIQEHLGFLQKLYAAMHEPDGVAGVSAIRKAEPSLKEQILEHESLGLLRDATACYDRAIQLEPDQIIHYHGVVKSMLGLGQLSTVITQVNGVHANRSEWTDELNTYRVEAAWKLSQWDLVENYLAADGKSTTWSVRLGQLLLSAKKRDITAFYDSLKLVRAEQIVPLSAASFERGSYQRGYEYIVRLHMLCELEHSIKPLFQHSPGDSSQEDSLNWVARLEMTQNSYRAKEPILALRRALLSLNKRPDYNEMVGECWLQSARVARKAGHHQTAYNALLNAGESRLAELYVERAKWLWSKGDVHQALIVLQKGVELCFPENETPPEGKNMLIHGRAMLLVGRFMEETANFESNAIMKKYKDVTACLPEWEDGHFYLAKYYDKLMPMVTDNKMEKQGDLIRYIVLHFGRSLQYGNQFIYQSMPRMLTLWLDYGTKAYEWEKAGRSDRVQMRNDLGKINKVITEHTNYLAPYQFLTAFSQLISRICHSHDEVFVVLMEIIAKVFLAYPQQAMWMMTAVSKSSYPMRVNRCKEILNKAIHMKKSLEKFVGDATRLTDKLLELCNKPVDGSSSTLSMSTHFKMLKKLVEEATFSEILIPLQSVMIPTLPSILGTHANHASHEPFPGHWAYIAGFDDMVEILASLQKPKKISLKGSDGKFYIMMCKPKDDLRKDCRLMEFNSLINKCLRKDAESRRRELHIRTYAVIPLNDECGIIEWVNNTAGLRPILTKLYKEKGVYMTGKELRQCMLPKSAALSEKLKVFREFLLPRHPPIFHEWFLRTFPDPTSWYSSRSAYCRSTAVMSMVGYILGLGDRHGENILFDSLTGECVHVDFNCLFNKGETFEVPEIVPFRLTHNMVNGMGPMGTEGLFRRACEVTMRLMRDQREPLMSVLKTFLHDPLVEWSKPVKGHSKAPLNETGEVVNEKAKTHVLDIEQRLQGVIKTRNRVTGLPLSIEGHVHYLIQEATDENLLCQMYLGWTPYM
Conditions: not given
It is filed as cell-based.
In turn, `COCc1ccc(-c2ccc3ncc4c(c3c2)n(C2CCOCC2)c(=O)n4C)cn1` had an IC50 of more than 12.6 µM.
On the same count and under the same terms, as for `CC(C)n1c(=O)n(C)c2cnc3ccc(-c4ccc(OCCCN(C)C)cc4)cc3c21`, the figure is more than 31.6 µM; as for `CC(C)n1c(=O)n(C)c2cnc3ccc(-c4ccc(OCCCCN(C)C)nc4)cc3c21`, more than 15.8 µM.
On the same count and under the same terms, the figure for `CC(C)n1c(=O)n(C)c2cnc3ccc(-c4ccc(OC[C@@H]5CCN(C)C5)nc4)cc3c21` is more than 31.6 µM.

Tested on in the next data set: not listed separately
Description: Apparent permeability across apical to basolateral side in dog MDCKII-MDR1 cells overexpressing BCRP at 0.1 uM incubated for 90 mins by LC-MS/MS analysis. It is filed as ADME, cell-based, Canis lupus familiaris, MDCK-MDR1.
Conditions: not given
Regarding `COCc1ccc(-c2ccc3ncc4c(c3c2)n([C@H]2CCCOC2)c(=O)n4C)cn1`, the Papp A→B at […], 0.1 µM was found to be 35 ×10⁻⁶ cm/s.
With `COCc1ccc(-c2ccc3ncc4c(c3c2)n(C(C)C)c(=O)n4C)cn1`, the Papp A→B at […], 0.1 µM came out at 39 ×10⁻⁶ cm/s.
The same measure, in the same setting: as for `CC(C)n1c(=O)n(C)c2cnc3ccc(-c4ccc(OCCCCN(C)C)nc4)cc3c21`, the figure is 5 ×10⁻⁶ cm/s; as for `CC(C)n1c(=O)n(C)c2cnc3ccc(-c4ccc(OC[C@@H]5CCN(C)C5)nc4)cc3c21`, 15 ×10⁻⁶ cm/s; as for `CC(C)n1c(=O)n(C)c2cnc3ccc(-c4ccc(N5CC(N(C)C)C5)nc4)cc3c21`, 18 ×10⁻⁶ cm/s.

Tested on in the next data set: not listed separately
Briefly: Intrinsic clearance in human hepatocyte assessed per 10^6 cells. It is filed as ADME, cell-based. To be noted: hepatocytes, read-out: CLH.
As for `COCc1ccc(-c2ccc3ncc4c(c3c2)n(C2CCOCC2)c(=O)n4C)cn1`, the hepatocyte CLint was less than 3 µL/min/1e6 cells.
In the case of `COCc1ccc(-c2ccc3ncc4c(c3c2)n([C@H]2CCCOC2)c(=O)n4C)cn1`, the hepatocyte CLint worked out at 3.2 µL/min/1e6 cells.
Same read-out and setting: as for `CC(C)n1c(=O)n(C)c2cnc3ccc(-c4ccc(OCCCN(C)C)cc4)cc3c21`, the figure is 18 µL/min/1e6 cells; as for `CC(C)n1c(=O)n(C)c2cnc3ccc(-c4ccc(O[C@H]5CCN(C)C5)nc4)cc3c21`, 6.2 µL/min/1e6 cells; as for `COCc1ccc(-c2ccc3ncc4c(c3c2)n(C(C)C)c(=O)n4C)cn1`, 34 µL/min/1e6 cells.
On the same count and under the same terms, as for `CC(C)n1c(=O)n(C)c2cnc3ccc(-c4ccc(OCCCCN(C)C)nc4)cc3c21`, the figure is 2.1 µL/min/1e6 cells.
On the same count and under the same terms, as for `CC(C)n1c(=O)n(C)c2cnc3ccc(-c4ccc(OCCCN5CCCCC5)nc4)cc3c21`, the figure is 2.4 µL/min/1e6 cells; as for `CC(C)n1c(=O)n(C)c2cnc3ccc(-c4ccc(OC[C@@H]5CCN(C)C5)nc4)cc3c21`, 5.7 µL/min/1e6 cells; as for `CC(C)n1c(=O)n(C)c2cnc3ccc(-c4ccc(N5CC(N(C)C)C5)nc4)cc3c21`, 4.8 µL/min/1e6 cells.
